From ChEMBL document CHEMBL1151595, “Palladium-catalyzed synthesis of C3-substituted 3-deoxymorphines” (Bioorg Med Chem Lett, 1994) come the findings set out here.

Common to all, as to type: tissue-based
Experiment [1] concerns the target Kappa-type opioid receptor (Cavia porcellus, UniProt P41144). As to the kind of experiment: Binding to kappa opioid receptor by using [3H]U-69593 as radioligand in guinea pig cerebellum.
The target of experiment [2] is Mu-type opioid receptor (Cavia porcellus, UniProt P97266). As to the kind of experiment: Binding to mu opioid receptor by using [3H]DAMGO as radioligand in guinea pig brain minus cerebellum.
Chain of Mu-type opioid receptor (P97266 whole entry): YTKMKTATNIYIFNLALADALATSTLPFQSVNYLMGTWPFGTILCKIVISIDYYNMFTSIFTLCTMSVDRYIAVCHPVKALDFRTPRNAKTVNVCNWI
The target in experiment [3] is Mu-type opioid receptor (Cavia porcellus) (UniProt P97266). As to the kind of experiment: Binding to mu opioid receptor by using [3H]DAMGO as radioligand in guinea pig brain minus cerebellum at 10 uM.
Chain of Mu-type opioid receptor (Cavia porcellus) (P97266 whole entry): as above

As a reminder, the IC50 is the concentration at which inhibition is half-maximal. Higher therefore signals a need for much substance. By inhibition is commonly meant how much of the control response was suppressed. A higher inhibition goes with a response far below the control.

Structures are written as SMILES.

Chain of Kappa-type opioid receptor (P41144 whole entry): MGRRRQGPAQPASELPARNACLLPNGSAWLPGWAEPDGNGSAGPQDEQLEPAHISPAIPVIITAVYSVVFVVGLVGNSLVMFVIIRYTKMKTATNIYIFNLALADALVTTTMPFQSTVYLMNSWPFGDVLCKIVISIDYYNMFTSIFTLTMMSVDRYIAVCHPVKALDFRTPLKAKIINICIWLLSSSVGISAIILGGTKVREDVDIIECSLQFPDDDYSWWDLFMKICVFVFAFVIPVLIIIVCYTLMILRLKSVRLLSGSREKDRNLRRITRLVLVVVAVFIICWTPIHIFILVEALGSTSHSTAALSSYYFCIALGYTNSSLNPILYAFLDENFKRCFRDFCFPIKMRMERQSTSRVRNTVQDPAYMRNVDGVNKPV

For the molecule `CC(=O)c1ccc2c3c1O[C@H]1[C@@H](O)C=C[C@H]4[C@@H](C2)N(C)CC[C@@]341`, the IC50 in experiment [1] is 5.1 µM; in experiment [2], 0.64 µM.
Regarding `CN1CC[C@]23c4c5ccc(-c6cc7ccccc7s6)c4O[C@H]2[C@@H](O)C=C[C@H]3[C@H]1C5`, the IC50 in experiment [1] came to 126 µM. For the same molecule, the inhibition in experiment [3] came to 41%.
`CN1CC[C@]23c4c5ccc(-c6ccco6)c4O[C@H]2[C@@H](O)C=C[C@H]3[C@H]1C5`: the IC50 in experiment [1] worked out at 9.5 µM; in experiment [2], 2.6 µM.
As to `CN1CC[C@]23c4c5ccc(-c6cccs6)c4O[C@H]2[C@@H](O)C=C[C@H]3[C@H]1C5`, the IC50 in experiment [1] stood at 25 µM. In experiment [3], the inhibition is 49%.
In the case of `Cc1ccc2c3c1O[C@H]1[C@@H](O)C=C[C@H]4[C@@H](C2)N(C)CC[C@@]341`, the IC50 in experiment [1] was found to be 36 µM; in experiment [2] it was 4.5 µM.
As to `CN1CC[C@]23c4c5ccc(-c6ccoc6)c4O[C@H]2[C@@H](O)C=C[C@H]3[C@H]1C5`, the IC50 turned out to be 0.91 µM in experiment [1] and 0.2 µM in experiment [2].
In the same order, the values of `CN1CC[C@]23c4c5cccc4O[C@H]2[C@@H](O)C=C[C@H]3[C@H]1C5` are 11 µM and 0.53 µM.
As to `CN1CC[C@]23c4c5ccc(OS(=O)(=O)C(F)(F)F)c4O[C@H]2[C@@H](O)C=C[C@H]3[C@H]1C5`, the results for the IC50 in experiment [1] and in experiment [2] were 111 µM and 6.4 µM, respectively.
`CN1CC[C@]23c4c5ccc(-c6ccccc6)c4O[C@H]2[C@@H](O)C=C[C@H]3[C@H]1C5`: in experiment [1], the IC50 turned out to be 76 µM. For the same molecule, the inhibition in experiment [3] is 43%.
Take `CN1CC[C@]23c4c5ccc(-c6ccsc6)c4O[C@H]2[C@@H](O)C=C[C@H]3[C@H]1C5`: the IC50 in experiment [1] was 15 µM; in experiment [2], 3.3 µM.
